These results are taken from patent publication US6410249B1, “Odorant receptors” (priority 1999, dated 2002).

Read-outs that look alike come from different tables or passages of the source.

Test [1] deals with goldfish olfactory system. To be noted: cited from earlier work.
The target of another test is T1, receptor 5.24 (Carassius auratus, UniProt Q9PW88).
T1 construct: The receptor 5.24 full length cDNA detects 1-2 bands in genomic DNA blots; expressed in transfected cells; host or cells: HEK 293 cells expressing SV40 large T antigen (293-TSA)
T1 sequence (Q9PW88 25-877): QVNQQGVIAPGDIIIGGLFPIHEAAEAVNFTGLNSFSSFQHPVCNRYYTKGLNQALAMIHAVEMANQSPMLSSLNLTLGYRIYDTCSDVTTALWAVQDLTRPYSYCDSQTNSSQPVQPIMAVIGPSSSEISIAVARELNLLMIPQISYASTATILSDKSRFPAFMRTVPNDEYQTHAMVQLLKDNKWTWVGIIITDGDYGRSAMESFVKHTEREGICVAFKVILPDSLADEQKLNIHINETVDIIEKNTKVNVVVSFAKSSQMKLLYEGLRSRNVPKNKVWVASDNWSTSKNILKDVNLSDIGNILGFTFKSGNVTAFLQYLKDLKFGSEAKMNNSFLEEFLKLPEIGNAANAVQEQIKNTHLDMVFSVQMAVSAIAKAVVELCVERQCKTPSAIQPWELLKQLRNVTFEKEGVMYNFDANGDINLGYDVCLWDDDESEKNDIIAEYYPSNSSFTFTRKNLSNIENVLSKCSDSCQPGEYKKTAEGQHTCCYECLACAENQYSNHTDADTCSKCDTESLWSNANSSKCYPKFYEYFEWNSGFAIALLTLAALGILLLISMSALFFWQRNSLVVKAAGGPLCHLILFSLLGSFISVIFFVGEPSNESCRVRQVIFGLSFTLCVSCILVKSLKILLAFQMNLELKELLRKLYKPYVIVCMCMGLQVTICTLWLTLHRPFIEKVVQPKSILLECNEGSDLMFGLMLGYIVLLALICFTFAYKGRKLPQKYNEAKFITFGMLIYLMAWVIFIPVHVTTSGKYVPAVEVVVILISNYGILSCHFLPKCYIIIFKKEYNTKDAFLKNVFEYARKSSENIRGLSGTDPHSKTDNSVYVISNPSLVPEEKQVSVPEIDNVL
Description: 3H-L-arginine saturation binding to membranes of receptor 5.24-expressing HEK 293 cells. Details: species or system goldfish. The source says: High-Affinity Binding of Radiolabeled L-Arginine to the Cloned Goldfish Odorant Receptor. To determine the affinity of the cloned goldfish amino acid receptor for basic amino acids, we characterized the ligand-receptor interaction by radiolabeled ligand binding to receptors expressed in mammalian cells. Human embryonic kidney (HEK) 293 cells were transfected with expression plasmids containing the receptor 5.24 cDNA insert. […] We next wished to determine what second messenger pathway receptor 5.24 couples to in HEK 293 cells. Control cells or cells expressing receptor 5.24 were exposed to varying concentrations of arginine and assayed for the accumulation of IP3 and cAMP.
Mammalian Cell Culture and DNA Transfections. For cell transfections, the receptor 5.24 cDNA insert was subcloned into two expression vectors: CMVI, which utilizes a human cytomegalovirus (CMV) immediate early promoter-enhancer plus the CMV intron A sequence to drive expression, and 608RX-2.2L, which is similar to CMVI except the cDNA insert is followed by an internal ribosome entry site (IRES)—enhanced green fluorescent protein (EGFP) coding sequence; 608RX-2.2L also contains a puromycin resistance gene. For transient assays, HEK 293 cells expressing the SV40 large T antigen (293 TSA cells) were transfected with the CMVI-receptor 5.24 or CMVI control plasmid using lipofectamine (Life Technologies) and harvested at 48 hours for membrane preparations. For stable cell lines, 293-TSA cells were transfected with the 608RX-2.2L-receptor 5.24 plasmid or a control 608RX-2.2L plasmid and selected in puromycin. Colonies showing high levels of EGFP fluorescence (as judged by epifluorescence microscopy) were picked, expanded, and screened for 3H-L-arginine binding (see below). In five independent receptor 5.24-transfected stable cell lines, receptor densities (Rt) varied between 0.5 and 6.0 pmol L-arginine binding sites/mg membrane protein. […] All competition binding assays and signal transduction studies were performed using the stable cell line 5.24-20 (Rt=2.0 pmol /mg) and a control cell line (2.2-9) stably transfected with vector alone (Rt=0.03 pmol/mg).
Membrane Preparations and Ligand Binding Assays. Membranes for ligand binding assays were prepared by washing confluent cells three times with phosphate buffered saline (PBS), detaching cells with a PBS-based enzyme-free dissociation solution, and resuspending cells in ice-cold 5.0 mM Hepes, pH 7.4, 1.0 mM EDTA, 1.0 μg/ml leupeptin, 0.5 mM PMSF. All subsequent manipulations were performed on ice. After a 30 min incubation, the cell suspension was homogenized and centrifuged at 100,000×g for 30 min. Cell membrane pellets were washed twice by resuspension and centrifugation in binding buffer (20 mM Hepes, pH 7.4, 1.0 mM EDTA, 2.0 mM MgCl2, 1.0 μg/ml leupeptin, 0.5 mM PMSF), resuspended in binding buffer, and frozen at −80° C.
Saturation binding assays were performed using 20-25 μg of membrane protein in a final volume of 100 μl binding buffer and increasing concentrations of [2,3-3H] L-arginine (specific activity=40 Ci/mmol; Dupont NEN). Non-specific binding was measured in the presence of 500 μM unlabeled L-arginine. Competition assays were performed with 500 nM [2,3-3H] […] Filters were washed three times with 4.0 ml ice cold 20 mM Hepes, pH 7.4, and retained radioactivity was measured by scintillation counting. […] Data were analyzed by nonlinear curve fitting using Origin software (Microcal). […]

As a reminder, the Kd is a measure of binding affinity in units of concentration. One may read the Hill coefficient as a measure of the steepness of the concentration-response curve. In the case of `N=C(N)NCCC[C@H](N)C(=O)O` [L-Arginine], in test [1], the “in vivo threshold sensitivity” value is “ca. 1 nM”. The Kd at receptor 5.24 (mean±SEM, n=4, read-out: dissociation constant (Kd)) was 121 ± 33 nM; at receptor 5.24 (range of n=4 determinations, read-out: dissociation constant (Kd), range), 52 to 207 nM; at receptor 5.24 (summary statement, read-out: Kd (high affinity interaction)), approximately 100 nM. This compound also gave a Hill coefficient on receptor 5.24 (mean±SEM, n=4 determinations) of 0.95±0.07.
